Data published in publication PMC11338008, “Development and validation of CYP26A1 inhibition assay for high-throughput screening” (Biotechnology journal, 2024).
Entries after “also recorded” stand apart in the source; their conditions may differ.

Test system: CYP26B1, CYP1A2, CYP3A4, CYP2C9, CYP2C19, CYP2D6
Assay: Selectivity across other P450-Glo CYP assays (heatmap, Figure 5)
Details: compared with CYP26A1 assay
Experimental: The CYP26B1 assay was a custom assay prepared as described above except it contained recombinant human CYP26B1 co-expressed with POR in E. coli (Cypex/BioIVT, Dundee, Scotland, UK; catalog # CYP071) in place of the Cyp26a1 sequence. […] The luminescence signal in each well was measured using a ViewLux plate reader.

| SMILES | activity pattern / selectivity across CYP assays, in words |
| --- | --- |
| OC(Cn1cncn1)(Cn1cncn1)c1ccc(F)cc1F [Fluconazole] | inhibitory effects in the CYP26A1 assay similar to their activity patterns on CYP26B1, CYP3A4, CYP2C9, and CYP2C19 |
| CCCN(CCOc1c(Cl)cc(Cl)cc1Cl)C(=O)n1ccnc1 [Prochloraz] | inhibitory effects in the CYP26A1 assay similar to their activity patterns on CYP26B1, CYP3A4, CYP2C9, and CYP2C19 |
| CCC(CC)C(c1ccc(Nc2nc3ccccc3s2)cc1)n1cncn1 (centres unmarked) [R115866/Talarozole, Talarozole] | inhibitory effects in the CYP26A1 assay similar to their activity patterns on CYP26B1, CYP3A4, CYP2C9, and CYP2C19; also recorded: broad-spectrum inhibition across various CYP enzymes; also recorded: significant potency in both CYP26A1/B1 and CYP3A4 assays |
| CC(C)(C)C(=O)C(Oc1ccc(Cl)cc1)n1cncn1 (centres unmarked) [Triadimefon] | inhibitory effects in the CYP26A1 assay similar to their activity patterns on CYP26B1, CYP3A4, CYP2C9, and CYP2C19 |
| CCCOC/C(=N\c1ccc(Cl)cc1C(F)(F)F)n1ccnc1 [Triflumizole] | inhibitory effects in the CYP26A1 assay similar to their activity patterns on CYP26B1, CYP3A4, CYP2C9, and CYP2C19 |
